Measured values: US9968649B2, “Vasopressin formulations for use in treatment of hypotension” (Par Pharmaceutical, Inc., priority 2015, dated 2018)
Values joined by “and” are separate entries in the source; they are usually repeats but may differ in a detail not shown here. Equal entries are not always repeated.

Test: Effect of temperature on vasopressin formulations: HPLC vasopressin assay and impurities on storage (Example 8)
Type: physicochemical
Procedure: To analyze degradation products of vasopressin that can be present in an illustrative formulation of vasopressin, gradient HPLC was performed to separate vasopressin from related peptides and formulation components. TABLE 2 below depicts the results of the experiment detailing the chemical formula, relative retention time (RRT), molar mass, and structure of vasopressin and detected impurities.
Vasopressin was detected in the eluent using UV absorbance. The concentration of vasopressin in the sample was determined by the external standard method, where the peak area of vasopressin in sample injections was compared to the peak area of vasopressin reference standards in a solution of known concentration. The concentrations of related peptide impurities in the sample were also determined using the external standard method, using the vasopressin reference standard peak area and a unit relative response factor. An impurities marker solution was used to determine the relative retention times of identified related peptides at the time of analysis.
To test the effect of temperature on the stability of vasopressin formulation, solutions containing 20 units/mL vasopressin and chlorobutanol, adjusted to pH 3.5 with acetic acid, were prepared. One mL of each vasopressin formulations was then filled into 3 cc vials. Each Vasopressin Formulation was stored either inverted or upright for at least three months, up to 24 months, at: (i) 5° C.; (ii) 25° C. and 60% relative humidity; or (iii) 40° C. and 75% humidity, and the amount of vasopressin (U/mL) and % total impurities were measured periodically. TABLES 7-12 below display the results of the experiments at 5° C. The results of the experiments at 25° C. are included in TABLES 13-18. All of the experiments were performed in triplicate. The results of the experiments at 40° C. are included in TABLES 19-24. For each temperature tested, three lots of the vasopressin formulation were stored for 24 months (5° C. and 25° C.) and 3 months (40° C.), and measurements were taken at regular intervals during the testing periods. “NMT” as used in the tables denotes “not more than.”
Experiments were also conducted on the same samples above over the course of the experiments to measure the amount of individual impurities in the samples, pH of the samples, chlorobutanol content, particulate matter, antimicrobial effectiveness, and bacterial endotoxin levels (TABLES 25-42). (NR=no reading; ND=not determined; UI=unidentified impurity).

[1] = Upright, 40° C. (75% humidity), 1 month
[2] = Upright, 40° C. (75% humidity), 2 months
[3] = Upright, 40° C. (75% humidity), 3 months
[4] = Upright, 40° C. (75% humidity), Initial
[5] = inverted, 5° C., 1 month, listed as AVP
[6] = inverted, 5° C., 2 months, listed as AVP
[7] = inverted, 5° C., 3 months, listed as AVP
[8] = inverted, 5° C., 6 months, listed as AVP
[9] = inverted, 5° C., 9 months, listed as AVP
[10] = inverted, 5° C., 12 months, listed as AVP
[11] = inverted, 5° C., 18 months, listed as AVP
[12] = inverted, 5° C., 24 months, listed as AVP

NC(=O)CC[C@@H]1NC(=O)[C@H](Cc2ccccc2)NC(=O)[C@H](Cc2ccc(O)cc2)NC(=O)[C@@H](N)CSSC[C@@H](C(=O)N2CCC[C@H]2C(=O)N[C@@H](CCCN=C(N)N)C(=O)NCC(N)=O)NC(=O)[C@H](CC(N)=O)NC1=O [Vasopressin, Cyclo (1-6) L-Cysteinyl-L-Tyrosyl-L-Phenylalanyl-L-Glutaminyl-L-Asparaginyl-L-Cysteinyl-L-Prolyl-L-Arginyl-L-Glycinamide]
effect of upright or inverted storage position on stability: did not markedly affect the stability | Total Impurities [1]: 3.6% and 3.5% | Vasopressin Assay [1]: 18.9 U/mL and 19.2 U/mL | Total Impurities [2]: 7.2% | Vasopressin Assay [2]: 18.5 U/mL and 18.7 U/mL and 18.3 U/mL | Total Impurities [3]: 10.3% | Vasopressin Assay [3]: 17.2 U/mL and 17.4 U/mL and 17.5 U/mL | Total Impurities [4]: 1.1% and 1.3% | Vasopressin Assay [4]: 19.8 U/mL and 20.1 U/mL and 19.9 U/mL | Related Substances: Acetyl-AVP (inverted, 5° C., 1 month): 0.2% and 0.3% | Related Substances: Asp5-AVP (inverted, 5° C., 1 month): 0.1% | Related Substances: SEQ ID NO.: 2 (inverted, 5° C., 1 month): 0.5% | Related Substances: SEQ ID NO.: 4 (inverted, 5° C., 1 month): 0.6% and 0.5% | Related Substances: SEQ ID NO.: 10 (inverted, 5° C., 1 month): 0.3% | Related Substances: UI-0.75-0.78 (inverted, 5° C., 1 month): 0.2% | Related Substances: UI-0.83-0.84 (inverted, 5° C., 1 month): 0.1% | Related Substances: UI-1.02-1.03 (inverted, 5° C., 1 month): 0.2% | Related Substances: UI-1.03 (inverted, 5° C., 1 month): 0.2% | Vasopressin (AVP) Assay (inverted, 5° C., 1 month): 19.4 U/mL and 19.7 U/mL | Total Impurities [5]: 2.0% and 2.2% and 1.9% | Vasopressin (AVP) Assay [5]: 19.4 U/mL and 19.7 U/mL | Related Substances: Acetyl-AVP (inverted, 5° C., 2 months): 0.3% | Related Substances: Asp5-AVP (inverted, 5° C., 2 months): 0.1% | Related Substances: SEQ ID NO.: 2 (inverted, 5° C., 2 months): 0.6% and 0.5% | Related Substances: SEQ ID NO.: 4 (inverted, 5° C., 2 months): 0.6% and 0.5% | Related Substances: SEQ ID NO.: 10 (inverted, 5° C., 2 months): 0.3% | Related Substances: UI-0.75-0.78 (inverted, 5° C., 2 months): 0.2% | Related Substances: UI-0.83-0.84 (inverted, 5° C., 2 months): 0.1% | Related Substances: UI-0.84 (inverted, 5° C., 2 months): 0.1% | Related Substances: UI-1.02-1.03 (inverted, 5° C., 2 months): 0.2% | Related Substances: UI-1.03 (inverted, 5° C., 2 months): 0.2% | Related Substances: UI-2.05 (inverted, 5° C., 2 months): 0.1% | Vasopressin (AVP) Assay (inverted, 5° C., 2 months): 19.4 U/mL and 19.7 U/mL and 19.6 U/mL | Total Impurities [6]: 2.1% and 2.3% and 2.0% | Vasopressin (AVP) Assay [6]: 19.4 U/mL and 19.7 U/mL and 19.6 U/mL | Related Substances: Acetyl-AVP (inverted, 5° C., 3 months): 0.3% | Related Substances: Asp5-AVP (inverted, 5° C., 3 months): 0.1% | Related Substances: SEQ ID NO.: 2 (inverted, 5° C., 3 months): 0.6% and 0.5% | Related Substances: SEQ ID NO.: 4 (inverted, 5° C., 3 months): 0.7% and 0.6% | Related Substances: SEQ ID NO.: 10 (inverted, 5° C., 3 months): 0.4% | Related Substances: UI-0.75-0.78 (inverted, 5° C., 3 months): 0.2% | Related Substances: UI-1.02-1.03 (inverted, 5° C., 3 months): 0.3% | Related Substances: UI-1.03 (inverted, 5° C., 3 months): 0.3% | Related Substances: UI-1.76 (inverted, 5° C., 3 months): 0.1% | Vasopressin (AVP) Assay (inverted, 5° C., 3 months): 19.3 U/mL and 19.7 U/mL | Total Impurities [7]: 2.3% and 2.4% and 2.2% | Vasopressin (AVP) Assay [7]: 19.3 U/mL and 19.7 U/mL | Related Substances: Acetyl-AVP (inverted, 5° C., 6 months): 0.2% and 0.3% | Related Substances: Asp5-AVP (inverted, 5° C., 6 months): 0.1% | Related Substances: SEQ ID NO.: 2 (inverted, 5° C., 6 months): 0.6% and 0.5% | Related Substances: SEQ ID NO.: 4 (inverted, 5° C., 6 months): 0.7% and 0.6% | Related Substances: SEQ ID NO.: 10 (inverted, 5° C., 6 months): 0.3% | Related Substances: UI-0.83-0.84 (inverted, 5° C., 6 months): 0.1% | Related Substances: UI-1.02-1.03 (inverted, 5° C., 6 months): 0.2% | Related Substances: UI-1.03 (inverted, 5° C., 6 months): 0.2% | Vasopressin (AVP) Assay (inverted, 5° C., 6 months): 19.5 U/mL and 19.9 U/mL and 19.8 U/mL | Total Impurities [8]: 2.2% and 2.1% and 2.0% | Vasopressin (AVP) Assay [8]: 19.5 U/mL and 19.9 U/mL and 19.8 U/mL | Related Substances: Acetyl-AVP (inverted, 5° C., 9 months): 0.2% and 0.3% | Related Substances: Asp5-AVP (inverted, 5° C., 9 months): 0.1% | Related Substances: SEQ ID NO.: 2 (inverted, 5° C., 9 months): 0.6% | Related Substances: SEQ ID NO.: 4 (inverted, 5° C., 9 months): 0.7% | Related Substances: SEQ ID NO.: 10 (inverted, 5° C., 9 months): 0.3% | Related Substances: UI-0.75-0.78 (inverted, 5° C., 9 months): 0.1% | Related Substances: UI-1.02-1.03 (inverted, 5° C., 9 months): 0.2% | Related Substances: UI-1.03 (inverted, 5° C., 9 months): 0.2% | Vasopressin (AVP) Assay (inverted, 5° C., 9 months): 19.4 U/mL and 19.7 U/mL | Total Impurities [9]: 2.3% and 2.1% | Vasopressin (AVP) Assay [9]: 19.4 U/mL and 19.7 U/mL | Related Substances: Acetyl-AVP (inverted, 5° C., 12 months): 0.3% | Related Substances: Asp5-AVP (inverted, 5° C., 12 months): 0.2% and 0.1% | Related Substances: SEQ ID NO.: 2 (inverted, 5° C., 12 months): 0.7% and 0.6% | Related Substances: SEQ ID NO.: 4 (inverted, 5° C., 12 months): 0.8% and 0.7% | Related Substances: SEQ ID NO.: 10 (inverted, 5° C., 12 months): 0.4% | Related Substances: UI-0.75-0.78 (inverted, 5° C., 12 months): 0.2% | Related Substances: UI-1.02-1.03 (inverted, 5° C., 12 months): 0.3% | Related Substances: UI-1.03 (inverted, 5° C., 12 months): 0.3% | Vasopressin (AVP) Assay (inverted, 5° C., 12 months): 19.5 U/mL and 19.8 U/mL and 19.9 U/mL | Total Impurities [10]: 2.6% and 2.7% and 2.4% | Vasopressin (AVP) Assay [10]: 19.5 U/mL and 19.8 U/mL and 19.9 U/mL | Related Substances: Acetyl-AVP (inverted, 5° C., 18 months): 0.3% | Related Substances: Asp5-AVP (inverted, 5° C., 18 months): 0.2% | Related Substances: SEQ ID NO.: 2 (inverted, 5° C., 18 months): 0.8% | Related Substances: SEQ ID NO.: 4 (inverted, 5° C., 18 months): 0.9% and 0.8% | Related Substances: SEQ ID NO.: 10 (inverted, 5° C., 18 months): 0.4% | Related Substances: UI-0.75-0.78 (inverted, 5° C., 18 months): 0.2% | Related Substances: UI-1.02-1.03 (inverted, 5° C., 18 months): 0.3% | Related Substances: UI-1.03 (inverted, 5° C., 18 months): 0.3% | Vasopressin (AVP) Assay (inverted, 5° C., 18 months): 19.4 U/mL and 19.7 U/mL and 19.8 U/mL | Total Impurities [11]: 2.9% and 2.6% | Vasopressin (AVP) Assay [11]: 19.4 U/mL and 19.7 U/mL and 19.8 U/mL | Related Substances: Acetyl-AVP (inverted, 5° C., 24 months): 0.3% | Related Substances: Asp5-AVP (inverted, 5° C., 24 months): 0.2% | Related Substances: SEQ ID NO.: 2 (inverted, 5° C., 24 months): 0.9% and 0.8% | Related Substances: SEQ ID NO.: 4 (inverted, 5° C., 24 months): 1.0% and 0.9% | Related Substances: SEQ ID NO.: 10 (inverted, 5° C., 24 months): 0.3% | Related Substances: UI-0.75-0.78 (inverted, 5° C., 24 months): 0.2% | Related Substances: UI-0.83-0.84 (inverted, 5° C., 24 months): 0.1% | Related Substances: UI-1.02-1.03 (inverted, 5° C., 24 months): 0.3% and 0.2% | Related Substances: UI-1.03 (inverted, 5° C., 24 months): 0.2% | Related Substances: UI-1.67 (inverted, 5° C., 24 months): 0.2% | Vasopressin (AVP) Assay (inverted, 5° C., 24 months): 19.3 U/mL and 19.5 U/mL | Total Impurities [12]: 2.9% and 2.8% | Vasopressin (AVP) Assay [12]: 19.3 U/mL and 19.5 U/mL
